What all share (format): cell-based
The test system of one assay is RPMI 8226. The experiment in a line: proliferation assay (CellTiter-Glo), RPMI 8226. To be noted: Homo sapiens; RPMI 8226 cells, 72-hour drug exposure. On the procedure: (§1) In accordance with the invention, the compounds were assessed in a cell-based assay that measures the capacity of the compounds to inhibit tumor cell proliferation following a 72-hour drug exposure. Cell viability is determined using CellTiter-Glo® Luminescent Cell Viability Assay (Promega). Cells were plated at 2000-5000 cells/well (depending on the cell lines) in 100 μL growth medium on 96-well microtiterplate. For each cell line assayed, cells were plated onto a separate plate for determination of Luminescence at t=0 hour and t=72 hour time points. Following overnight incubation at 37° C., Luminescence values for the t=0 samples were determined. Dose plates for the t=72 hour time points were treated with compounds diluted into growth medium. Cells were then incubated for 72 hours at 37° C. Luminescence values for the t=72 hour samples were determined. For data analysis, briefly, t=0 values were subtracted from those determined for the t=72 hour time points, for both the treated and untreated samples. Percent differences in […] between drug-treated and control values were used to determine the percent inhibition of growth.
For orientation: ATP-based viability assays read luminescence as a measure of living cells.

Assay [1] relates to multiple myeloma cell lines. The experiment in a line: proliferation assays with multiple myeloma cell lines (summary). To be noted: range over 9 multiple myeloma cell lines, 72-hour drug exposure; read-out: IC50s, proliferation of 9 multiple myeloma tested. On the procedure: as §1
The test system of another assay is LP-1. The assay is described as follows: proliferation assay (CellTiter-Glo), LP-1. The conditions noted are these: LP-1 cells, 72-hour drug exposure. How it is done: as §1
The next assay relates to L363. The experiment in a line: proliferation assay (CellTiter-Glo), L363. The conditions noted are these: Homo sapiens, L-363; L363 cells, 72-hour drug exposure. On the procedure: as §1
A further assay relates to Molp8. The experiment in a line: proliferation assay (CellTiter-Glo), Molp8. The conditions noted are these: Homo sapiens, MOLP-8; Molp8 cells, 72-hour drug exposure. On the procedure: as §1
In another assay the test system is KMS-12-PE. The assay is described as follows: proliferation assay (CellTiter-Glo), KMS-12-PE. The conditions noted are these: Homo sapiens; KMS-12-PE cells, 72-hour drug exposure. On the procedure:
as §1

The test system of another assay is OPM2. The assay is described as follows: proliferation assay (CellTiter-Glo), OPM2. To be noted: Homo sapiens, OPM-2; OPM2 cells, 72-hour drug exposure. How it is done:
as §1

The next assay concerns KMS-12-BM. The experiment in a line: proliferation assay (CellTiter-Glo), KMS-12-BM. The conditions noted are these: KMS-12-BM cells, 72-hour drug exposure. On the procedure:
as §1

The next assay relates to Molm13. The experiment in a line: proliferation assay (CellTiter-Glo), Molm13. The conditions noted are these: Homo sapiens, MOLM-13; Molm13 cells, 72-hour drug exposure. How it is done: as §1
A further assay concerns Molp2. The assay is described as follows: proliferation assay (CellTiter-Glo), Molp2. The conditions noted are these: MOLP-2; Molp2 cells, 72-hour drug exposure. On the procedure: as §1

pIC50: −log10 of the molar value.

As to `COc1c(OCCCN2CCOCC2)ccc2c1N=C(NC(=O)c1cnc(N)nc1)N1CCN=C21` [Compound A, 2-amino-N-[7-methoxy-8-(3-morpholin-4-ylpropoxy)-2,3-dihydroimidazo[1,2-c]quinazolin-5-yl]pyrimidine-5-carboxamide], the pIC50 with RPMI 8226 is 7.32; in [1], 7.00 to 8.52; in the assay on LP-1, 8.43; in the assay with L363 it was 8.09; in the assay on Molp8, 7.64; in the assay with KMS-12-PE, 7.17. The pIC50 was 7.04 in the assay with OPM2, 8.43 in the assay on KMS-12-BM, 7.16 in the assay with Molm13 and 7.92 with Molp2.

For the origin of these results see patent US20110251191A1, “USE OF SUBSTITUTED 2, 3-DIHYDROIMIDAZO[1,2-C]QUINAZOLINES FOR THE TREATMENT OF MYELOMA” (BAYER SCHERING PHARMA AKTIENGESELLSCHAFT, priority 2008, published 2011).
